We go through one compound from US4418068A, “Antiestrogenic and antiandrugenic benzothiophenes” (Eli Lilly and Company, priority 1981, dated 1983).

The subject of one experiment is estrogenic response. As to the kind of experiment: Regression Test: reversal of established estrogenic response (uterine weight). The experiment is classed as in vivo, immature rats. As to conditions: estradiol 0.1 mcg./day 3 days. On the procedure: The following test was carried out to determine if the compounds of this invention could reverse an estrogenic response, when administration of the compound was started after the estrogenic response had become established.
The test animals were immature rats, and all administrations were by subcutaneous injection.
The mean uterine weights of these groups of animals, respectively, were 97.9, 97.3, 119.9 and 112.3 mg.
The animals were sacrificed on the fifth day and their mean uterine weight was 56.4 mg.
The animals were sacrificed on the seventh day and their mean uterine weight was 57.0 mg.

Experiment [1] concerns DMBA-induced mammary tumors. As to the kind of experiment: Tests Against DMBA-Induced mammary tumors. The experiment is classed as in vivo, adult female virgin rats. An excerpt:
Mammary tumors were induced in adult female virgin rats by a single 20-mg. oral dose of 7,12-dimethylbenzanthracene. Within about six weeks, visible and palpable tumors were present in the mammary tissue of the rats, and the rats were allocated into treatment and control groups in such a way that each group contained animals having approximately the same size and number of tumors. The size of the tumors was estimated by measuring their cross-sectional area. […]
[…] The treated animals received 1 mg./kg. per day of 6-methoxy-2-(4-hydroxyphenyl)-3-[4-(2-piperidinoethoxy)benzoyl]benzo[b]thiophene, hydrochloride, as a subcutaneous injection in corn oil. The animals were not ovariectomized at the end of the experiment.

For experiment [2], the system named is androgen-stimulated prostate growth. As to the kind of experiment: Anti-Androgen Test, adult castrated male rats (ventral prostate weight). The experiment is classed as in vivo. As to conditions: for Mean Prostate Weight: Experiment A. On the procedure: The antiandrogenic property of the compounds was evaluated in the following tests, in which the compound of Example 3 was used again.
The animals used in this test were adult male rats having a body weight which averaged about 330 g. when the experiment ended. All of the animals to be used in the experiment were castrated by the scrotal route, and were held untreated for 3 days. On the fourth day, subcutaneous administration of 0.1 mg./day of an exogenous androgen, testosterone propionate, was begun, and was continued for seven consecutive days. An untreated control group of animals received injections of 0.1 ml./day of corn oil as a blank treatment. The compound of this invention was administered orally or subcutaneously to the treated animals in 0.1 ml. of corn oil, at the same time that the androgen was administered. The animals were sacrificed 24 hours after the last injection of testosterone propionate, the ventral prostate glands were removed and weighed, and the mean of the weights of each treatment group was reported. The table below reports the mean weights resulting from administration of various doses of the compound along with androgen.
Each treatment group of animals in this experiment consisted of seven to nine animals, except for the untreated control group, which contained twelve animals.

Setting [3] is: Experiment B, 20 mg./kg./day, orally, four weeks.
Setting [4] is: Experiment C, low dose 20 mg./kg./day, four weeks.

Take `O=C(c1ccc(OCCN2CCCCC2)cc1)c1c(-c2ccc(O)cc2)sc2cc(O)ccc12` [Example 3, 6-hydroxy-2-(4-hydroxyphenyl)-3-[4-(2-piperidinoethoxy)benzoyl]benzo[b]thiophene]: the mean uterine weight with estrogenic response (then estradiol + 1 mg. compound s.c. on following five days, sacrificed ninth day) is given as 50.7 mg; with estrogenic response (then estradiol + 1 mg. compound s.c. on following three days, sacrificed seventh day) it was 57.0 mg; with estrogenic response (then estradiol + 1 mg. compound s.c. on fourth day, sacrificed fifth day), 56.4 mg. In addition, the “average total cross-sectional area of tumor” value in experiment [1] (Experiment A, oral 0.1, 5, 10, 20 mg./kg./day in successive two-week periods, 8 weeks) is listed as 345 square millimeters. The “total cross-sectional area of tumor, lower end of range” value in experiment [1] (Experiment A, oral, 8 weeks) is on record as “complete regression”. In addition, the “total cross-sectional area of tumor, upper end of range” value in experiment [1] (Experiment A, oral, 8 weeks, one animal, tumors not estrogen-dependent) is given as ≤ 1550 sq. mm. In addition, the “animals with completely regressed tumors” value in experiment [1] (setting [3]) is “one of the compound-treated animals had completely regressed”. Moreover, the “average total tumor area” value in experiment [1] (setting [3]) amounted to 152 square millimeters. In experiment [1] (Experiment B, 20 mg./kg./day, orally, since second week, shrank after ovariectomy), the “growth of the large tumor (668 square millimeters)” value was “its growth had been checked, and it had not significantly grown”. Moreover, the average tumor area in experiment [1] (Experiment C, high dose 40 mg./kg./day, four weeks) came out at 304 square millimeters. Besides, the “average cross-sectional tumor area” value in experiment [1] (setting [4]) came out at 441 square millimeters. The “tumor area, lower end of range” value in experiment [1] (setting [4]) is “no tumors present”. For the same compound, the “tumor area, upper end of range” value in experiment [1] (setting [4]) was ≤ 1907 square millimeters. For the same compound, the “Mean Prostate Weight” value in experiment [2] (0.01 mg./day, S.C. + testosterone propionate 0.1 mg./day) came out at 253 mg; in experiment [2] (0.01 mg./day, oral + testosterone propionate 0.1 mg./day), 192 mg; in experiment [2] (0.1 mg./day, S.C. + testosterone propionate 0.1 mg./day), 235 mg; in experiment [2] (0.1 mg./day, oral + testosterone propionate 0.1 mg./day), 267 mg; in experiment [2] (1 mg./day, S.C. + testosterone propionate 0.1 mg./day) it was 201 mg; in experiment [2] (1 mg./day, oral + testosterone propionate 0.1 mg./day), 242 mg. In addition, the “effect on androgen-stimulated prostate growth” value in experiment [2] (conclusion in words, Experiments A-C) is “inhibited a large part of the abnormal prostate growth”.
